Values of other authors as cited in patent publication US9585896B2, “Compositions comprising omega-3 fatty acids and vitamin D for psoriasis, and methods and uses thereof” (PRONOVA BIOPHARMA NORGE AS, priority 2012, dated 2017).

System: patients with psoriasis
Conditions: over a 12-week period, versus high-dose etanercept

## Ustekinumab: FDA-approved IL-12/IL-23 blocker targeting the common domain p40
  efficacy in patients with psoriasis: higher efficacy than high-dose etanercept
